# Read-outs that look alike come from different tables or passages of the source. Peptide text beside a SMILES is read from it. * marks the point of attachment. X3 = O=C(Cn1cc(-c2ccc([N+](=O)[O-])cc2)nn1)*; X4 = O=C(Cn1cc(-c2c(O)ccc3ccccc23)nn1)*; X2 = COc1ccc(OC)c(-c2cn(CC(=O)*)nn2)c1; X1 = O=C(Cn1cc(-c2ccc(Cl)cc2Cl)nn1)*
# What was measured:
# Mcl-1 = target: T1, Mcl-1 (UniProt P97287+Q07820); test: Competitive fluorescence anisotropy (FA) assay, FITC-NoxaB displacement from Mcl-1; format: binding
# T1 construct: amino acid residues 152-189 of mouse Mcl-1 fused with amino acid residues 209-327 of; 8 x His (N); TEV site (N); made in house; host or cells: E. coli BL21(DE3)pLysS
# T1 sequence (P97287 152-189 limits assumed): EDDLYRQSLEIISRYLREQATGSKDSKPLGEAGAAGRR
# T1 sequence (Q07820 209-327 limits assumed): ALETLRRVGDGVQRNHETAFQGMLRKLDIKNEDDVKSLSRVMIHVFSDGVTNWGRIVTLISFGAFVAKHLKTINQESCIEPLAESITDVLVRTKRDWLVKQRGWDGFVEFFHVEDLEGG
# Description: Fmoc, 9-fluorenylmethylcarbony. IC50 determined by non -linear regression of at least three experiments.
# 4. Fluorescence Anisotropy Binding Assay
# Fluorescence anisotropy was carried out on a BMG Labtech clariostar microplate reader with a fluorescence anisotropy optic measuring at 482/530 nm. Low -binding, Corning 96 -well black plates were used and all reagents used in the assay were biological grade and purchased from Sigma Aldrich and Novabioche m. All solutions were made using MilliQ water .
# Anisotropy values were automatically calculated using the following formula […]
# Where r = anisotropy, l a = parallel emission light, lb = perpendicular emission light and I = total […]
# KD was determined using GraphPad Prism Version 6.0 software, using the One Site – Total binding […]
# Where Bmax is the maximum specific binding, KD is the equilibrium binding constant, and NS is the slope of nonspecific binding. […]
# IC50 was determined using GraphPad Prism Version 6.0 software, using a four-parameter logistic model, according to precedent from Ottmann and co-workers.[5] Errors are the transformed greater extreme of the standard error. […]
# For binding each well contained 10 µL of Mcl -1 protein in 10-fold dilutions (0.37 pM to 3.7 µM) […]
# protein were dissolved in PBS: 0.05% Tween -20 buffer at pH 7.4. Reagents were incubated for 30 min at room temperature prior to reading. Bubbles were removed and 8 data points were generated.
# Figure S 1: Fluorescence Anisotropy direct titration.
# To confirm reproducibility of
# (µ) and standard deviations (σ) were inputted into the following equation:
# Inhibition screens were carried out using 10 nM Mcl -1, 5 nM fluorescently-tagged peptide and 100 µM of inhibitor. Compounds were dissolved in DMSO. […]
# control (DMSO) were used to define the mini mum and maximum values and ensure the assay was […]
# (1 picture or pasted object on this page, not shown here) […]
# Bubbles were removed and 8 data points were generated. […]
# BxPC-3 cells = test: MTS cytotoxicity assay, BxPC-3; format: cell-based; conditions: 37 °C, triplicate, at least three experiments, errors = transformed greater extreme of standard error, read-out: BxPC-3 cell growth inhibition IC50
# Description: (§1) CUSTOM_[…] ("<1>=[N+]",("charge", 0, 2)) […]
# (§2) CUSTOM_[…] ("<1>=[N]=[N]",("bond",1,(2,3))) […]
# (§3) CUSTOM_[…] ("<1>([C]=[C])=[N][N]",("bond",1,(3,5))) […]
# (§4) The MiaPaCa-2 cell line, BxPC-3 cell line and AsPC-1 cell line were purchased from the European Collection of Cell Cultures (ECACC, Porton Down, UK). MiaPaCa-2 cells were cultured in DMEM media with 2 mM L-glutamine, 100 U/mL penicillin, 100 µg/mL streptomycin and 10% FCS.
# (§5) BxPC-3 cells and AsPC-1 cells were cultured in RPMI-1640 media containing 2 mM L-glutamine, 100 U/mL penicillin, 100 µg/mL streptomycin and 10% FCS. Cells were sub-cultured twice weekly and maintained at 37 °C and 5% CO2.
# (§6) The anti-proliferative activity of the compounds studied was assessed by MTS assay (Promega) following the manufacturer’s instructions. Cells were seeded at 5 x 103 / 100 μL in a 96-well plate and left untreated or treated with DMSO (vehicle control), or compounds 1-4 (100 μM – […], in well concentration) in triplicate for 72 h at 37 °C with 5% CO2. Following this, MTS assay reagent was added to each well and the plates incubated for 4 h at 37 °C with 5% CO2. The absorbance was measured at 492 nm using the BMG Labtech POLARstarOPTIMA microplate reader. […]
# MiaPaCa-2 cells = test: MTS cytotoxicity assay, MiaPaCa-2; format: cell-based; conditions: 37 °C, triplicate, at least three experiments, errors = transformed greater extreme of standard error, read-out: MiaPaCa-2 cell growth inhibition IC50
# Description: as §1, §2, §3, §4, §5, §6
# AsPC-1 cells = test: MTS cytotoxicity assay, AsPC-1; format: cell-based; conditions: 37 °C, triplicate, at least three experiments, errors = transformed greater extreme of standard error, read-out: AsPC-1 cell growth inhibition IC50
# Description: as §1, §2, §3, §4, §5, §6
# [1] = Table 2, inhibition of binding of 5 nM FITC-NoxaB to 10 nM Mcl-1, PBS, 0.05% Tween-20, pH 7.4, non-linear regression of at least three experiments, errors = transformed greater extreme of standard error, SEM, read-out: FA IC50
# [2] = Table S2, binding inhibition of FITC-NoxaB to Mcl-1, small molecules not tested against cell lines, at least three experiments, errors = transformed greater extreme of standard error, SEM, read-out: FA IC50
# [3] = Table S2, binding inhibition of FITC-NoxaB to Mcl-1, small molecules not tested against cell lines, at least three experiments, errors = transformed greater extreme of standard error, read-out: FA IC50
# [4] = Table 1, inhibition of binding of 5 nM FITC-NoxaB to 10 nM Mcl-1, PBS, 0.05% Tween-20, pH 7.4, non-linear regression of at least three experiments, errors = transformed greater extreme of standard error, [b] <100 means <100 μM and >10 μM, accurate value not determined, read-out: FA IC50
# [5] = Table S1, binding inhibition of FITC-NoxaB to Mcl-1, * less than 100 µM and greater than 10 µM, accurate IC50 not determined, read-out: FA IC50
# [6] = Table 1, inhibition of binding of 5 nM FITC-NoxaB to 10 nM Mcl-1, PBS, 0.05% Tween-20, pH 7.4, non-linear regression of at least three experiments, errors = transformed greater extreme of standard error, [b] <100 means <100 μM and >10 μM, accurate value not determined, SEM, read-out: FA IC50
compound,measurement,setting,value
CC[C@H](C)[C@H](NC(=O)[C@H](CCCNC(=N)N)NC(=O)[C@H](CCCNC(=N)N)NC(=O)[C@H](CC(C)C)NC(=O)[C@H](CCC(N)=O)NC(=O)[C@H](C)NC(=O)[C@H](C)NC(C)=O)C(=O)NCC(=O)N[C@@H](CC(=O)O)C(=O)N[C@@H](Cc1cn(Cc2ccccc2F)nn1)C(N)=O [Compound 2],IC50,"Mcl-1; SEM, read-out: FA IC50",0.4 ± 0.3 µM
CC[C@H](C)[C@H](NC(=O)[C@H](CCCNC(=N)N)NC(=O)[C@H](CCCNC(=N)N)NC(=O)[C@H](CC(C)C)NC(=O)[C@H](CCC(N)=O)NC(=O)[C@H](C)NC(=O)[C@H](C)NC(C)=O)C(=O)NCC(=O)N[C@@H](CC(=O)O)C(=O)N[C@@H](Cc1cn(Cc2ccccc2)nn1)C(N)=O [Compound 3],IC50,"Mcl-1; SEM, read-out: FA IC50",0.7 ± 0.8 µM
CC[C@H](C)[C@H](NC(=O)[C@H](CCCNC(=N)N)NC(=O)[C@H](CCCNC(=N)N)NC(=O)[C@H](CC(C)C)NC(=O)[C@H](CCC(N)=O)NC(=O)[C@H](C)NC(=O)[C@H](C)NC(C)=O)C(=O)NCC(=O)N[C@@H](CC(=O)O)C(=O)N[C@@H](Cc1cn(CC(=O)O)nn1)C(N)=O [Compound 4],IC50,"Mcl-1; SEM, read-out: FA IC50",5.8 ± 4.6 µM
COc1ccc(OC)c(-c2cn(CC(=O)N[C@@H](CCCCN)C(=O)N[C@H](C(=O)N[C@@H](CC(N)=O)C(=O)N[C@@H](CC(C)C)C(=O)N[C@@H](CCCNC(=N)N)C(=O)N[C@@H](CCC(N)=O)C(=O)N[C@@H](CCCCN)C(=O)N[C@@H](CC(C)C)C(=O)N[C@@H](CC(C)C)C(=O)N[C@@H](CC(N)=O)C(N)=O)C(C)C)nn2)c1 [Compound 9] (X2-KVNLRQKLLN-NH2),IC50,"Mcl-1; SEM, read-out: FA IC50",0.1 ± 0.1 µM
CC(C)C[C@H](NC(=O)[C@H](CC(C)C)NC(=O)[C@H](CCCCN)NC(=O)[C@H](CCC(N)=O)NC(=O)[C@H](CCCNC(=N)N)NC(=O)[C@H](CC(C)C)NC(=O)[C@H](CC(N)=O)NC(=O)[C@@H](NC(=O)[C@H](CCCCN)NC(=O)Cn1cc(-c2ccc([N+](=O)[O-])cc2)nn1)C(C)C)C(=O)N[C@@H](CC(N)=O)C(N)=O [Compound 11] (X3-KVNLRQKLLN-NH2),IC50,"Mcl-1; SEM, read-out: FA IC50",3.5 ± 1.5 µM
CC(C)C[C@H](NC(=O)[C@H](CC(C)C)NC(=O)[C@H](CCCCN)NC(=O)[C@H](CCC(N)=O)NC(=O)[C@H](CCCNC(=N)N)NC(=O)[C@H](CC(C)C)NC(=O)[C@H](CC(N)=O)NC(=O)[C@@H](NC(=O)[C@H](CCCCN)NC(=O)Cn1cc(-c2c(O)ccc3ccccc23)nn1)C(C)C)C(=O)N[C@@H](CC(N)=O)C(N)=O [Compound 13] (X4-KVNLRQKLLN-NH2),IC50,"Mcl-1; SEM, read-out: FA IC50",8.2 ± 1.9 µM
CC(C)C[C@H](NC(=O)[C@H](CC(C)C)NC(=O)[C@H](CCCCN)NC(=O)[C@H](CCC(N)=O)NC(=O)[C@H](CCCNC(=N)N)NC(=O)[C@H](CC(C)C)NC(=O)[C@H](CC(N)=O)NC(=O)[C@@H](NC(=O)[C@H](CCCCN)NC(=O)Cn1cc(-c2ccc(Cl)cc2Cl)nn1)C(C)C)C(=O)N[C@@H](CC(N)=O)C(N)=O [Compound 14] (X1-KVNLRQKLLN-NH2),IC50,"Mcl-1; SEM, read-out: FA IC50",8.3 ± 3.6 µM
Fc1ccccc1Cn1cc(C2=CCCCC2)nn1 [Compound 19],IC50,"BxPC-3 cells; 72 h, SEM",21.6 ± 8.83 µM
same,IC50,MiaPaCa-2 cells; 72 h,> 100 µM
same,IC50,Mcl-1; [1],0.217 ± 0.058 µM
same,IC50,AsPC-1 cells; 72 h,> 100 µM
"C1=C(c2cn(Cc3ccccc3)nn2)CCCC1 [Compound 22, 1-benzyl-4-(cyclohex-1-en-1-yl)-1H-1,2,3-triazole]",IC50,"BxPC-3 cells; Homo sapiens, BXPC-3, 72 h",> 100 µM
same,IC50,"MiaPaCa-2 cells; Homo sapiens, MIA PaCa-2, 72 h",> 100 µM
same,IC50,"Mcl-1; SEM, read-out: FA IC50",1.68 ± 0.694 µM
same,IC50,"AsPC-1 cells; Homo sapiens, ASPC1, 72 h",> 100 µM
"COC(=O)[C@H](Cc1cn(Cc2ccccc2C)nn1)NC(=O)OCC1c2ccccc2-c2ccccc21 [Compound 24, methyl (S)-2-((((9H-fluoren-9-yl)methoxy)carbonyl)amino)-3-(1-(2-methylbenzyl)-1H-1,2,3-triazol-4-yl)propanoate]",IC50,"BxPC-3 cells; 72 h, SEM",10.7 ± 2.72 µM
same,IC50,"MiaPaCa-2 cells; 72 h, SEM",2.14 ± 0.56 µM
same,IC50,Mcl-1; [1],2.21 ± 0.877 µM
same,IC50,"AsPC-1 cells; 72 h, SEM",2.28 ± 1.44 µM
CCc1ccc(-c2cn(CC(=O)O)nn2)cc1 [Compound S10],IC50,Mcl-1; [2],0.497 ± 0.367 µM
O=C(O)Cn1cc(-c2ccc([N+](=O)[O-])cc2)nn1 [Compound S11],IC50,Mcl-1; [2],0.561 ± 0.13 µM
Cc1ccc(-c2cn(CC(=O)O)nn2)c(C)c1 [Compound S12],IC50,Mcl-1; [2],0.766 ± 0.484 µM
CCOc1ccc(-c2cn(CC(=O)O)nn2)cc1 [Compound S13],IC50,Mcl-1; [2],1.32 ± 1.1 µM
Fc1ccccc1Cn1cc(-c2ccccc2Cl)nn1 [Compound S14],IC50,Mcl-1; [2],1.37 ± 0.938 µM
CCC(C)c1cn(Cc2ccccc2)nn1 (stereo not drawn) [Compound S15],IC50,Mcl-1; [2],3.31 ± 0.488 µM
COC(=O)[C@H](Cc1cn(CC(=O)O)nn1)NC(=O)OCC1c2ccccc2-c2ccccc21 [Compound S16],IC50,Mcl-1; [2],5.28 ± 1.69 µM
COC(=O)[C@H](Cc1cn(Cc2ccc(Br)cc2)nn1)NC(=O)OCC1c2ccccc2-c2ccccc21 [Compound S17],IC50,Mcl-1; [3],> 100 µM
CCCCCCCc1cn(C23CC4CC(CC(C4)C2)C3)nn1 [Compound S18],IC50,Mcl-1; [3],> 100 µM
CCCCCCCc1cn(Cc2ccccc2F)nn1 [Compound S19],IC50,Mcl-1; [3],> 100 µM
AAQLRRIGD [Compound 5],IC50,Mcl-1; [4],< 100 µM
AAQLRRIGD [Compound S1],IC50,Mcl-1; [5],< 100 µM
KVNLRQKLLN [Compound 10],IC50,Mcl-1; [6],1.2 µM
KVNLRQKLLN [Compound 12],IC50,Mcl-1; [6],4.3 ± 0.9 µM
KVNLRQKLLN [Compound 15],IC50,Mcl-1; [4],< 100 µM
KVNLRQKLLN [Compound S2],IC50,Mcl-1; [5],< 100 µM
extended NoxaB peptide: the two NoxaB peptide fragments clicked together by CuAAC (AAQLRRIGDXKVNLRQKLLN; N-terminal acetyl),IC50,"Mcl-1; 5 nM FITC-NoxaB, 10 nM Mcl-1, read-out: IC50 (competitive FA assay, Mcl-1)",7.23 ± 0.88 µM
